Assay results as given in US6399607B1, “Aminomethylene amide analogs of pyrazinamide with intracellular antimycobacterial activity against pyrazinamide-resistant mycobacteria combined with a rifamycin” (priority 1999, dated 2002).
Where two headings read alike, the source gives them in different places.

How the values were obtained:
Format in all cases: cell-based, Mycobacterium tuberculosis
[1] = test system: M. tuberculosis; set-up: unit not given beside the values; conditions: for MIC, M. tuberculosis ATCC 27294: ATCC 27294 = H37RV, strain susceptible to pyrazinamide; for MIC, M. tuberculosis ATCC 35822: ATCC 35822, isoniazid (INH)-resistant strain; for MIC, M. tuberculosis ATCC 35828: ATCC35828, PZA resistant strain; for MIC, M. tuberculosis MS 6210: MS6210, resistant clinical isolate
[2] = test system: M. tuberculosis; assay: MIC in modified 7H10 broth against M. tuberculosis (Table 3); set-up: MIC, M. tuberculosis ATCC 35828: unit not given beside the values; conditions: ATCC 35828 (PZA resistant), pH 5.8
[3] = test system: M. tuberculosis; assay: Influence of pH on MICs (Table 5); set-up: unit not given beside the values; conditions: ATCC 35828 (PZA resistant)
[4] = test system: M. tuberculosis; assay: microbe, parasite or virus in culture; set-up: MIC, PZA-resistant strain at pH 6.0: unit not given beside the values; conditions: for MIC, INH-resistant strain, pH 6.0 / MIC, PZA-resistant strain, pH 6.0 / MIC, INH-resistant strain, pH 6.8 / MIC, PZA-resistant strain, pH 6.8: 7H12 BACTEC broth
[5] = test system: M. tuberculosis
[6] = test system: PZA-resistant Mtb in macrophages; conditions: FIG. 1; in comparison with PZA or the control

Row | SMILES | MIC, M. tuberculosis ATCC 27294 [1] | MIC, M. tuberculosis ATCC 35822 [1] | MIC, M. tuberculosis ATCC 35828 [1] | MIC, M. tuberculosis MS 6210 [1] | MIC, M. tuberculosis ATCC 35828 [2] | MIC, ATCC 35828 pH 6.0 [3] | MIC, ATCC 35828 pH 6.8 [3] | MIC, INH-resistant strain, pH 6.0 ([4]; pH 6.0) | MIC, PZA-resistant strain, pH 6.0 ([4]; pH 6.0) | MIC, INH-resistant strain, pH 6.8 [4] | MIC, PZA-resistant strain, pH 6.8 [4] | MIC, PZA-resistant strain, pH 5.5 ([4]; PZA-resistant strain) | also measured
1 | O=C(NCN1CCOCC1)c1cnccn1 [Compound 4, (morpholin-4-ylmethyl)-amide] | 100 | 33 | 100 | 100 | 16 | – | – | – | – | – | – | – | –
2 | O=C(NCN1CCOCC1)c1cnccn1 [MZA, morphazinamide] | – | – | – | – | – | 100 | 100 | 100 g./ml | 100 g./ml | 100 g./ml | 100 g./ml | 100 g./ml | activity at pH 6.8 compared with pH levels 5.5 and 6.0 ([5]; pH 6.8 v. 5.5 and 6.0): no different from or only slightly higher than at pH levels 5.5 and 6.0; MICs against susceptible strains at pH 5.5 and 6.0 compared with PZA ([5]; susceptible strains, pH 5.5 and 6.0): in the same range as those of PZA
3 | CCCN(CCC)CNC(=O)c1cnccn1 [Compound 9, dipropylaminomethyl-amide] | 100 | 100 | 100 | 100 | – | – | – | – | – | – | – | – | –
4 | CN(CNC(=O)c1cnccn1)Cc1ccccc1 [Compound 8, [(benzyl-methyl-amino)-methyl]-amide] | 100 | 100 | 100 | 33 | – | – | – | – | – | – | – | – | –
5 | CCN(CC)CNC(=O)c1cnccn1 [Compound 2, pyrazine-2-carboxylic acid diethylaminomethyl-amide] | – | – | – | – | 1 | 100 | 100 | 100 g./ml | 100 g./ml | 100 g./ml | 100 g./ml | – | number of colony forming units (CFU) of M. tuberculosis from macrophages [6]: reduced the number of CFU
6 | CCN(CC)CNC(=O)c1cnc(N(CC)CC)cn1 [Compound 17, 5-diethylamino-pyrazinoic acid diethylaminomethyl-amide] | – | – | – | – | 16 | – | – | – | – | – | – | – | –
7 | CN1CCN(CNC(=O)c2cnccn2)CC1 [Compound 7, (piperazin-1-ylmethyl)-amide] | 300 | 100 | 300 | 100 | – | – | – | – | – | – | – | – | –
8 | O=C(NCN1CCCC1)c1cnccn1 [Compound 1, pyrazine-2-carboxylic acid (pyrrolidin-1-ylmethyl)-amide] | – | – | – | – | 2 | 100 | 100 | 100 g./ml | 100 g./ml | 100 g./ml | 100 g./ml | 100 g./ml | –
9 | NC(=O)c1cnc(Cl)cn1 [Compound 5-Chloro-PZA, 5-chloro-pyrazinamide, reference compound] | – | – | – | – | 8 | – | – | – | – | – | – | – | –
10 | NC(=O)c1cnccn1 [PZA, Pyrazinamide] | 33 | 33 | >300 | 100 | 2048 | >300 | >300 | 33 g./ml | >300 g./ml | >300 g./ml | >300 g./ml | > 300 g./ml | MIC, PZA-resistant strain at pH 6.0 ([4]; PZA-resistant strain, pH 6.0): > 300; activity against susceptible strains by pH ([5]; pH 5.5, 6.0, 6.8): active against susceptible strains at pH 5.5 and 6.0 only, and not at pH 6.8
